Experimental data taken from patent US20100022483A1, “Substituted Tetracycline Compounds” (Paratek Pharmaceuticals, Inc., priority 2008, published 2010).
Converted amounts (≈) assume the structure as drawn. Read-outs that look alike come from different tables or passages of the source.

Assays:
[1] = system: gram negative bacteria; experiment: In vitro anti-bacterial activity assay (broth dilution MIC), gram negative bacteria; assay type: cell-based, E. coli
Procedure, shortened: (§1)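 Broth dilution MIC following CLSI M7-A2: compounds serially diluted, log-phase test strains added to final ~5×10^5 CFU/ml, incubated ~18 hours at 35° C in ambient air. Plates read on microplate reader or visually; MIC is lowest concentration inhibiting growth.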

[2] = in vitro; assay type: cell-based; details: Chinese hamster, Cytotox. CHO-K1
[3] = system: gram positive bacteria; experiment: In vitro anti-bacterial activity assay (broth dilution MIC), gram positive bacteria; assay type: cell-based, S. aureus; details: 18 h
Procedure, shortened: as §1

[4] = system: 3T3 fibroblast cells; experiment: In vitro phototoxicity assay (neutral red; UV light-treated vs dark control plates); assay type: cell-based; details: for Photo Toxicity UV Tox50: UV light 50 minutes; for Photo Toxicity Dark Tox50: dark control plate
Procedure, shortened: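 Neutral red viability readout (A535 after EtOH/acetic acid extraction) compares paired plates: one exposed 50 min to UV at 1.6–1.8 mW/cm^2, one held in darkness, both dosed with compound in HBSS and recovered overnight. 3T3 fibroblast cells used; phototoxicity taken as the difference.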

[5] = Mammalian cytotoxicity assay (resazurin), COS-1 cells; assay type: cell-based; details: African green monkey, read-out: Cytotox. COS-1
Procedure, shortened: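 Cells seeded overnight at 37° C., 5% CO2, then exposed to serial compound dilutions for 24 hours. Medium replaced with resazurin (0.042 mg/ml in PBS with Ca and Mg) for 2 hours plus 30 minutes dark at room temperature; fluorescence read at ex 535/em 590 nm, IC50 taken as 50% growth inhibition.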

[6] = Escherichia coli, 18 h, E. coli D1 209, read-out: Median MIC's G− E. coli D1 209
[7] = Escherichia coli, 18 h, E. coli MG 1655, read-out: Median MIC's G− E. coli MG 1655
[8] = Escherichia coli, ATCC25922, 18 h, E. coli ATCC 25922, read-out: Median MIC's G− E. coli ATCC 25922
[9] = Pseudomonas aeruginosa, 18 h, P. aeruginosa K201 PAO6609, read-out: Median MIC's G− P. aeruginosa K201 PAO6609
[10] = Staphylococcus aureus, S. aureus MRSA5, read-out: Median MIC's G+ S. aureus MRSA5
[11] = Staphylococcus aureus, S. aureus RN450, read-out: Median MIC's G+ S. aureus RN450
[12] = Streptococcus pneumoniae, S. pneumoniae 157E-Strep, read-out: Median MIC's G+ S. pneumoniae 157E-Strep

| Compound | MIC [1, 6] [µg/mL] | MIC [1, 7] [µg/mL] | MIC [1, 8] [µg/mL] | MIC [1, 9] [µg/mL] | IC50 at 24 h [2] [µM] | MIC [3, 10] [µg/mL] | MIC [3, 11] [µg/mL] | MIC [3, 12] [µg/mL] | Photo Toxicity UV Tox50 [4] [µM] | Photo Toxicity Dark Tox50 [4] [µM] | IC50 at 24 h [5] [µM] |
| --- | --- | --- | --- | --- | --- | --- | --- | --- | --- | --- | --- |
| CN(C)[C@@H]1C(O)=C(C(N)=O)C(=O)[C@@]2(O)C(O)=C3C(=O)c4c(O)ccc(C(=O)CNCc5cccn5C)c4C[C@H]3C[C@@H]12 [CE] | 64 (≈ 113 µM) | 4 (≈ 7.08 µM) | 4 (≈ 7.08 µM) | 64 (≈ 113 µM) | > 41.4 | 4 (≈ 7.08 µM) | 0.25 (≈ 0.443 µM) | 0.5 (≈ 0.886 µM) | >133.53 | >133.53 | > 41.4 |
| CN(C)[C@@H]1C(O)=C(C(N)=O)C(=O)[C@@]2(O)C(O)=C3C(=O)c4c(O)ccc(C(=O)Cn5ccnc5)c4C[C@H]3C[C@@H]12 [CF] | 64 (≈ 122 µM) | 64 (≈ 122 µM) | 64 (≈ 122 µM) | 64 (≈ 122 µM) | > 49.9 | 64 (≈ 122 µM) | 4 (≈ 7.66 µM) | 4 (≈ 7.66 µM) | >161.01 | >161.01 | > 49.9 |
| CC(=O)NCCC(=O)c1ccc(O)c2c1C[C@H]1C[C@H]3[C@H](N(C)C)C(O)=C(C(N)=O)C(=O)[C@@]3(O)C(O)=C1C2=O [CI] | 64 (≈ 121 µM) | 64 (≈ 121 µM) | 64 (≈ 121 µM) | 64 (≈ 121 µM) | > 160 | 64 (≈ 121 µM) | 2 (≈ 3.79 µM) | 2 (≈ 3.79 µM) | >159.57 | >159.57 | > 160 |
| CN(C)CC/C(=N\OC(C)(C)C)c1ccc(O)c2c1C[C@H]1C[C@H]3[C@H](N(C)C)C(O)=C(C(N)=O)C(=O)[C@@]3(O)C(O)=C1C2=O [CJ] | 1 (≈ 1.71 µM) | 2 (≈ 3.42 µM) | 0.5 (≈ 0.855 µM) | 64 (≈ 109 µM) | 34.6 | 2 (≈ 3.42 µM) | 0.06 (≈ 0.103 µM) | 0.06 (≈ 0.103 µM) | 62.89 | >136.86 | 82.2 |
| CN(C)[C@@H]1C(O)=C(C(N)=O)C(=O)[C@@]2(O)C(O)=C3C(=O)c4c(O)ccc(-c5cccc(C(=O)NCCO)c5)c4C[C@H]3C[C@@H]12 [CK] | 64 (≈ 111 µM) | 64 (≈ 111 µM) | 64 (≈ 111 µM) | 64 (≈ 111 µM) | > 14.7 | 8 (≈ 13.9 µM) | 0.125 (≈ 0.216 µM) | 0.125 (≈ 0.216 µM) | >146.56 | >146.58 | > 14.7 |
| CN(C)CCCCNC(=O)c1cccc(-c2ccc(O)c3c2C[C@H]2C[C@H]4[C@H](N(C)C)C(O)=C(C(N)=O)C(=O)[C@@]4(O)C(O)=C2C3=O)c1 [CL] | 64 (≈ 101 µM) | 64 (≈ 101 µM) | 64 (≈ 101 µM) | 64 (≈ 101 µM) | > 41.7 | 64 (≈ 101 µM) | 4 (≈ 6.32 µM) | 4 (≈ 6.32 µM) | >134.63 | >134.63 | > 41.7 |
| CN(C)[C@@H]1C(O)=C(C(N)=O)C(=O)[C@@]2(O)C(O)=C3C(=O)c4c(O)ccc(-c5cccc(CCCO)c5)c4C[C@H]3C[C@@H]12 [CM] | 64 (≈ 117 µM) | 64 (≈ 117 µM) | 64 (≈ 117 µM) | 64 (≈ 117 µM) | 14.1 | 0.5 (≈ 0.911 µM) | 0.0625 (≈ 0.114 µM) | 0.06 (≈ 0.109 µM) | >167.5 | >167.5 | 15.1 |
| CN(C)CCCCNCc1ccc(O)c2c1C[C@H]1C[C@H]3[C@H](N(C)C)C(O)=C(C(N)=O)C(=O)[C@@]3(O)C(O)=C1C2=O [CN, (4S,4aS,5aR,12aS)-4-Dimethylamino-7-[(4-dimethylamino-butylamino)-methyl]-3,10,12,12a-tetrahydroxy-1,11-dioxo-1,4,4a,5,5a,6,11,12a-octahydro-naphthacene-2-carboxylic acid amide] | 64 (≈ 118 µM) | 32 (≈ 59 µM) | 32 (≈ 59 µM) | 64 (≈ 118 µM) | > 138 | 64 (≈ 118 µM) | 16 (≈ 29.5 µM) | 32 (≈ 59 µM) | >138.03 | >138.03 | > 138 |
| CN(C)[C@@H]1C(O)=C(C(N)=O)C(=O)[C@@]2(O)C(O)=C3C(=O)c4c(O)ccc(-c5cccc(/C=C/C#N)c5)c4C[C@H]3C[C@@H]12 [CO] | 64 (≈ 118 µM) | 64 (≈ 118 µM) | 64 (≈ 118 µM) | 64 (≈ 118 µM) | 9.41 | 0.5 (≈ 0.923 µM) | 0.0625 (≈ 0.115 µM) | 0.06 (≈ 0.111 µM) | >164.35 | >164.35 | 7.77 |
